SMILES strings stand for the structures.

As usually defined, the EC50 is the concentration needed to bring the measured effect to its halfway point.

The subject of test [1] is cellular pERK in MIA-PaCa-2 (KRAS-G12C) cells. Nature of the test: Cell based pERK assay, MIA-PaCa-2. As to conditions: Homo sapiens; MIA-PaCa-2 (KRAS-G12C), 2 hours incubation, HTRF phospho-ERK1/2; read-out: MIAPaCa2 pERK EC50. The procedure: (§1) Compounds were tested in a 384-well assay format for their ability to inhibit cellular pERK in Kuramochi (WT KRAS), MIA-PaCa-2 (KRAS-G12C), ASPC-1 (KRAS G12D), and NCI-H441 (KRAS-G12V) cell-lines. Compounds were serially diluted (1:3) in DMSO. On day −1, 80 μL of cells were plated per well in the 384 well tissue-culture plates (Greiner: Cat #781080) to seed 5000 cells per wells of AsPC-1 or 7500 cells of MIA-PaCa-2, NCI-H441, and Kuramochi cell lines in RPMI (Corning: Cat #10-040-CM) with 10% fetal bovine serum (FBS) (HyClone: Cat #SH30071-03) and 1× penicillin-streptomycin-glutamate (PSG) (Corning: Cat #30-009-CI) for […] and Kuramochi cell lines and DMEM (Corning: Cat #15-018-CM) with 10% FBS and 1×PSG for MIA-PaCa-2 cell line. The plates were then incubated overnight at 37° C. and 5% CO2. On day 0, 400 nL of compound/well was added into the cell plates and mixed 5 times by pipetting using a Beckmann Biomek FX. The cell plates were then incubated for 2 hours at 37° C. and 5% CO2. HTRF Advanced Phospho-ERK1/2 (THR202/TYR204) Detection Kits (PerkinElmer: Cat #64AERPEG) were used to prepare the lysis and detection solution according to manufacturer protocol. Following the 2 hour incubation, 70 μL of medium was aspirated from the plates and 10 uL of lysis and detection solution was added to the plates using a Biotek EL406 washer and dispenser. Plates were sealed and stored overnight at room temperature. HTRF ratio (665 nm/615 nm) was read by Envision multimode reader (PerkinElmer) the next day. The TR-FRET ratios were normalized to a positive (saturating concentration of known inhibitor) and negative (DMSO) control and plotted against the log of compound concentration.
Background: TR-FRET usually uses a lanthanide donor and a delayed reading to cut background.

Test [2] concerns cellular pERK in NCI-H441 (KRAS-G12V) cells. Put plainly: Cell based pERK assay, NCI-H441. The settings on record: Homo sapiens; NCI-H441 (KRAS-G12V), 2 hours incubation, HTRF phospho-ERK1/2; read-out: H441 PERK EC50. The procedure:
as §1

Test [3] concerns cellular pERK in Kuramochi (WT KRAS) cells. Nature of the test: Cell based pERK assay, Kuramochi. As to conditions: Kuramochi (WT KRAS), 2 hours incubation, HTRF phospho-ERK1/2; read-out: Kuramochi pERK EC50. The procedure:
as §1

Test [4] relates to cellular pERK in ASPC-1 (KRAS G12D) cells. Put plainly: Cell based pERK assay, ASPC-1. As to conditions: Homo sapiens, ASPC1; ASPC-1 (KRAS G12D), 2 hours incubation, HTRF phospho-ERK1/2; read-out: AsPC1 pERK EC50. The procedure:
as §1

Consider `C#Cc1c(F)ccc2cc(O)cc(-c3nc4c5c(nc(OC[C@@]67CCCN6C[C@H](F)C7)nc5c3F)N3C[C@@]5(F)CC[C@H](N5)[C@H]3CC4)c12` [Example 1-1, 4-((5aR,6S,9S)-1,9-difluoro-12-(((2R,7aS)-2-fluorotetrahydro-1H-pyrrolizin-7a(5H)-yl)methoxy)-4,5,5a,6,7,8,9,10-octahydro-3,10a,11,13,14-pentaaza-6,9-methanonaphtho[1,8-ab]heptalen-2-yl)-5-ethynyl-6-fluoronaphthalen-2-ol], for which the concentration giving a half-maximal response (EC50) in test [1] came out at 3.27 nM; in test [2] it was 4.93 nM; in test [3], 2.68 nM; in test [4], 38.2 nM.
For `CCc1c(F)ccc2cc(O)cc(-c3nc4c5c(nc(OC[C@@]67CCCN6C[C@H](F)C7)nc5c3F)N3C[C@@]5(F)CC[C@H](N5)[C@H]3CC4)c12` [Example 2-1, 4-((5aR,6S,9S)-1,9-difluoro-12-(((2R,7aS)-2-fluorotetrahydro-1H-pyrrolizin-7a(5H)-yl)methoxy)-4,5,5a,6,7,8,9,10-octahydro-3,10a,11,13,14-pentaaza-6,9-methanonaphtho[1,8-ab]heptalen-2-yl)-5-ethyl-6-fluoronaphthalen-2-ol] the same measures were 3.01 nM, 4.44 nM, 1.41 nM and 55.5 nM.
`C#Cc1c(F)ccc2cc(O)cc(-c3nc4c5c(nc(OC[C@@]67CCCN6C[C@H](F)C7)nc5c3F)N3C[C@@]5(F)CC[C@](F)(N5)[C@H]3CC4)c12` [Example 3-1, 5-ethynyl-6-fluoro-4-((5aR,6R,9S)-1,6,9-trifluoro-12-(((2R,7aS)-2-fluorotetrahydro-1H-pyrrolizin-7a(5H)-yl)methoxy)-4,5,5a,6,7,8,9,10-octahydro-3,10a,11,13,14-pentaaza-6,9-methanonaphtho[1,8-ab]heptalen-2-yl)naphthalen-2-ol]: the EC50 in test [1] stood at 0.89 nM; in test [2] it was 1.25 nM; in test [3] it was 1.13 nM; in test [4] it was 3.27 nM.
The matching figures for `C#Cc1c(F)ccc2cc(O)cc(-c3nc4c5c(nc(OC[C@@]67CCCN6C[C@H](F)C7)nc5c3F)N3C[C@@]5(F)CC[C@](F)(N5)[C@H]3CCC4)c12` [Example 4-1, 5-ethynyl-6-fluoro-4-((6aR,7R,10S)-1,7,10-trifluoro-13-(((2R,7aS)-2-fluorotetrahydro-1H-pyrrolizin-7a(5H)-yl)methoxy)-5,6,6a,7,8,9,10,11-octahydro-4H-3,11a,12,14,15-pentaaza-7,10-methanocyclohepta[4,5]cycloocta[1,2,3-de]naphthalen-2-yl)naphthalen-2-ol]: 0.49 nM, 0.17 nM, 1.4 nM and 1.34 nM.
For `C#Cc1c(F)ccc2cc(N)cc(-c3nc4c5c(nc(OCC67CCCN6CCC7)nc5c3F)N3C[C@@]5(F)CC[C@](F)(N5)[C@H]3CCC4)c12` [Example 4-6, 5-ethynyl-6-fluoro-4-((6aR,7R,10S)-1,7,10-trifluoro-13-((tetrahydro-1H-pyrrolizin-7a(5H)-yl)methoxy)-5,6,6a,7,8,9,10,11-octahydro-4H-3,11a,12,14,15-pentaaza-7,10-methanocyclohepta[4,5]cycloocta[1,2,3-de]naphthalen-2-yl)naphthalen-2-amine] the same measures were 1.35 nM, 6.45 nM, 1.98 nM and 30.9 nM.
For `C#Cc1c(F)ccc2cc(O)cc(-c3nc4c5c(nc(OCC67CCCN6CCC7)nc5c3F)N3C[C@@]5(F)CC[C@](F)(N5)[C@@H]3[C@@H](C)C4)c12` [Example 4-10, 5-ethynyl-6-fluoro-4-((5S,5aS,6R,9S)-1,6,9-trifluoro-5-methyl-12-((tetrahydro-1H-pyrrolizin-7a(5H)-yl)methoxy)-4,5,5a,6,7,8,9,10-octahydro-3,10a,11,13,14-pentaaza-6,9-methanonaphtho[1,8-ab]heptalen-2-yl)naphthalen-2-ol] the same measures were 0.243 nM, 3.2 nM, 11.6 nM and 5.93 nM.
For the compound `C#Cc1c(F)ccc2cc(O)cc(-c3nc4c5c(nc(OC[C@@]67CCCN6C[C@H](F)C7)nc5c3F)N3C[C@@]5(F)CC[C@H](N5)[C@H]3C=C4C)c12` [Example 4-15, 4-((5aR,6S,9S)-1,9-difluoro-12-(((2R,7aS)-2-fluorotetrahydro-1H-pyrrolizin-7a(5H)-yl)methoxy)-4-methyl-5a,6,7,8,9,10-hexahydro-3,10a,11,13,14-pentaaza-6,9-methanonaphtho[1,8-ab]heptalen-2-yl)-5-ethynyl-6-fluoronaphthalen-2-ol], the concentration giving a half-maximal response (EC50) in test [1] turned out to be 4.05 nM; in test [2], 21.8 nM; in test [3] it was 4.42 nM; in test [4] it was 98.3 nM.
For `C#Cc1c(F)ccc2cc(O)cc(-c3nc4c5c(nc(OC[C@@]67CCCN6C[C@H](F)C7)nc5c3F)N3C[C@@]5(F)CC[C@](F)(N5)[C@H]3CO4)c12` [Example 4-16, 5-ethynyl-6-fluoro-4-((5aR,6R,9S)-1,6,9-trifluoro-12-(((2R,7aS)-2-fluorotetrahydro-1H-pyrrolizin-7a(5H)-yl)methoxy)-5a,6,7,8,9,10-hexahydro-5H-4-oxa-3,10a,11,13,14-pentaaza-6,9-methanonaphtho[1,8-ab]heptalen-2-yl)naphthalen-2-ol] the same measures were 157 nM, over 770 nM, 147 nM and over 1000 nM.
For `C#Cc1c(F)ccc2cc(N)cc(-c3nc4c5c(nc(OC[C@@]67CCCN6C[C@H](F)C7)nc5c3F)N3C[C@@]5(F)CC[C@](F)(N5)[C@@H]3CC4)c12` [Example 4-19, 5-ethynyl-6-fluoro-4-((5aS,6R,9S)-1,6,9-trifluoro-12-(((2R,7aS)-2-fluorotetrahydro-1H-pyrrolizin-7a(5H)-yl)methoxy)-4,5,5a,6,7,8,9,10-octahydro-3,10a,11,13,14-pentaaza-6,9-methanonaphtho[1,8-ab]heptalen-2-yl)naphthalen-2-amine] the same measures were 0.235 nM, 1.08 nM, 0.92 nM and 5.17 nM.
For `C#Cc1c(F)ccc2cc(O)cc(-c3nc4c5c(nc(OC[C@@]67CCCN6C[C@H](F)C7)nc5c3F)N3C[C@@]5(F)CC[C@](F)(N5)[C@@H]3CC4)c12` [Example 4-20, 5-ethynyl-6-fluoro-4-((5aS,6R,9S)-1,6,9-trifluoro-12-(((2R,7aS)-2-fluorotetrahydro-1H-pyrrolizin-7a(5H)-yl)methoxy)-4,5,5a,6,7,8,9,10-octahydro-3,10a,11,13,14-pentaaza-6,9-methanonaphtho[1,8-ab]heptalen-2-yl)naphthalen-2-ol] the same measures were 0.081 nM, 0.616 nM, 1.8 nM and 0.735 nM.
With `Oc1cc(-c2nc3c4c(nc(OCC56CCCN5CCC6)nc4c2F)N2C[C@@]4(F)CC[C@](F)(N4)[C@H]2CCC3)c2c(Cl)c(F)ccc2c1` [Example 4-27, 5-chloro-6-fluoro-4-((6aR,7R,10S)-1,7,10-trifluoro-13-((tetrahydro-1H-pyrrolizin-7a(5H)-yl)methoxy)-5,6,6a,7,8,9,10,11-octahydro-4H-3,11a,12,14,15-pentaaza-7,10-methanocyclohepta[4,5]cycloocta[1,2,3-de]naphthalen-2-yl)naphthalen-2-ol], the EC50 was determined as 3.03 nM in test [1], 13.8 nM in test [2], 2.58 nM in test [3] and 64.3 nM in test [4].
For `C#Cc1c(F)ccc2cc(N)cc(-c3nc4c5c(nc(OCC67CCCN6CCC7)nc5c3F)N3C[C@@]5(F)CC[C@](F)(N5)[C@@H]3CC4)c12` [Example 4-34, 5-ethynyl-6-fluoro-4-((5aS,6R,9S)-1,6,9-trifluoro-12-((tetrahydro-1H-pyrrolizin-7a(5H)-yl)methoxy)-4,5,5a,6,7,8,9,10-octahydro-3,10a,11,13,14-pentaaza-6,9-methanonaphtho[1,8-ab]heptalen-2-yl)naphthalen-2-amine] the same measures were 0.511 nM, 2.75 nM, 3.34 nM and 20.9 nM.

For the origin of these results see patent US20250042922A1, “KRAS MODULATING COMPOUNDS” (priority 2023, published 2025).
